From article PMC6830309, “Characterizing CDK8/19 Inhibitors through a NFκB-Dependent Cell-Based Assay” (Cells, 2019)
Where two headings read alike, the source gives them in different places.

What was measured:
[1] = tested on: TNFα-induced NFκB reporter activity in WT 293 cells (CDK8/19 inhibition); assay: NFκB-dependent luciferase reporter cell-based assay in WT 293 cells; parameters: species or system human; conditions: for extent of inhibition of NFκB-dependent promoter activation: WT cells
Protocol: (§1) The lentiviral construct pHAGE-NFkB-TA-LUC-UBC-dTomato was generated by Darrell Kotton […] Parental WT 293 cells or CDK8/19 dKO 293 cells were transduced with the lentivirus and dTomato-positive cells were sorted out using FACS Aria III. Single-cell clones were expanded and tested for luciferase reporter activities under TNFα- and/or senexin B-treated and untreated conditions with Bright-Glo Luciferase Assay System (Promega, Madison, WI, USA).
(§2) On day 1, cells were seeded in polyethyleneimine-coated 96-well plates at the density of 5 × 10^4 cells per well. […] Chemiluminescence intensity of each well was measured with ChemiDoc Touch™ (Bio-Rad) and quantified using ImageLab software (Bio-Rad). The raw data were then further processed with GraphPad Prism 7.0 (GraphPad Software, San Diego, CA, USA) for curve-fitting and IC50 calculation.

[2] = tested on: TNFα-induced NFκB reporter activity in CDK8/19 dKO 293 cells; assay: NFκB-dependent luciferase reporter cell-based assay in CDK8/19 dKO 293 cells; parameters: species or system human; conditions: for IC50: Homo sapiens, read-out: NFkB activity Assay IC50; for effect on reporter induction in dKO cells: 293-dKO-NFκB-Luc cells
Protocol: as §1, §2

[3] = tested on: alkaline phosphatase (ALPase) activity in ST2 cells; parameters: method as in PMID 23453217; conditions: concentration enhancing ALPase activity to 200% of the control; cited from earlier work
IL8 mRNA expression = assay: QPCR of TNFα-induced IL8 mRNA in 293 cells and CDK8/19 knockout derivatives; type: cell-based, human; conditions: dKO 293 cells; 1 μM senexin B
Protocol: (§3) Cells were seeded in 12-well plates at density of 3 × 10^5 cells per well in regular culture media 24 h before treatment. Cells were first pre-treated with 1 μM senexin B or solvent control DMSO (0.1%) for 1 h and then treated with or without 10 ng/mL TNF-α for 2 h. Total RNA was extracted using RNAeasy Mini Kit (Qiagen, Germantown, MD, USA) and 1 µg of total RNA was used to generate cDNA using iScript cDNA synthesis kit (Bio-Rad). Gene expression was quantified using iTaq Universal SYBR green super mix on the CFX384 Real time system (Bio-Rad). The primers used for real-time PCR were: CXCL1-F, […]; CXCL1-R, […]; IL8-F, […]; IL8-R, […]; RPL13A-F, […] and RPL13A-R, […].

CXCL1 mRNA expression = assay: QPCR of TNFα-induced CXCL1 mRNA in 293 cells and CDK8/19 knockout derivatives; type: cell-based, human; conditions: dKO 293 cells; 1 μM senexin B
Protocol: as §3

[4] = Homo sapiens, HEK293, 3 h, 293-WT-NFKB-LUC#8, 10 ng/mL TNFα 3 h, read-out: NFkB activity Assay IC50
[5] = HEK293, 293-dKO-NFKB-LUC#2, 10 ng/mL TNFα 3 h
[6] = 293-WT-NFKB-LUC#8, 10 ng/mL TNFα 3 h, read-out: NFkB activity Assay IC50

SMILES | IC50 [1, 4] | extent of inhibition of NFκB-dependent promoter activation ([1]; 10 ng/mL TNFα 3 h) | IC50 [2, 5] | extent of inhibition of NFκB-dependent promoter activation ([2]; dKO cells, 10 ng/mL TNFα 3 h) | ALP activity Assay EC200 [3] | also measured
Cc1ccc(S(=O)(=O)N[C@@H](Cc2ccccc2)C(=O)CCl)cc1 [TPCK, tosyl-L-phenylalanyl-chloromethane ketone] | 13000 nM | complete suppression | 12000 nM | complete suppression | – | –
Cc1ccc(N2CCCN(c3ccnc4sc(C(N)=O)c(N)c34)CC2)cc1 [15n] | 43.1 nM | – | – | – | 115.4 nM | –
CN1CCN(C(=O)c2ccc3cc(CCNc4ncnc5ccc(C#N)cc45)ccc3c2)CC1 [senexin B] | 114 nM | – | > 1000 nM | – | – | inhibitory effect on TNFα induction of IL8 (IL8 mRNA expression): completely abolished; IC50 ([1]; Homo sapiens, HEK293, 3 h, clone WT-#1, 10 ng/mL TNFα 3 h, read-out: IC50 for inhibition of TNFα-induced luciferase expression): 95 nM; IC50 ([1]; Homo sapiens, HEK293, 3 h, clone WT-#2, 10 ng/mL TNFα 3 h, read-out: IC50 for inhibition of TNFα-induced luciferase expression): 135 nM; IC50 ([1]; Homo sapiens, HEK293, 3 h, clone WT-#9, 10 ng/mL TNFα 3 h, read-out: IC50 for inhibition of TNFα-induced luciferase expression): 187 nM; inhibition of TNFα-induced luciferase expression ([1]; all the WT clones, 1 μM senexin B): 70–80%; inhibition of TNFα-induced luciferase induction ([2]; dKO cells, 1 μM senexin B, 10 ng/mL TNFα): not in dKO cells; inhibitory effect on TNFα induction of CXCL1 (CXCL1 mRNA expression): completely abolished
CN(C)C(=O)c1ccc(N2CCCN(c3ccnc4sc(C(N)=O)c(N)c34)CC2)cc1 [15u] | 10.3 nM | – | > 1000 nM | – | 31.9 nM | IC50 [1, 6]: 10 nM; effect on reporter induction in dKO cells ([2]; 10 ng/mL TNFα 3 h): none of them showed any activity
CN(C)C/C=C/C(=O)Nc1ccc(C(=O)Nc2cccc(Nc3ncc(Cl)c(-c4c[nH]c5ccccc45)n3)c2)cc1 [THZ1] | 220 nM | completely inhibited | 352 nM | completely inhibited | – | –
COc1ccc(N2CCCN(c3ccnc4sc(C(N)=O)c(N)c34)CC2)cc1 [15q] | 37.8 nM | – | – | – | 88.1 nM | –
NC(=O)c1sc2nccc(N3CCCN(c4ccccc4)CC3)c2c1N [15k] | – | – | – | – | – | effect on reporter induction in dKO cells ([2]; 10 ng/mL TNFα 3 h): none of them showed any activity
CN1CC[C@H](c2c(O)cc(O)c3c(=O)cc(-c4ccccc4Cl)oc23)[C@H](O)C1 [Flavopiridol] | 34 nM | completely inhibited | 26 nM | completely inhibited | – | –
CN(C)C1CC23CCC4(O2)C(=CCC2(C)C(c5ccc6ccncc6c5)=CCC24)C=C3C(O)C1O (centres unmarked) [dCA, didehydro-cortistatin A] | – | – | – | – | – | IC50 ([1]; Homo sapiens, HEK293, 3 h, read-out: NFkB activity Assay IC50): 1.3 nM; maximal (plateau) inhibition of TNFα-induced reporter induction ([1]; WT reporter cells, 10 ng/mL TNFα 3 h): ~ 80%; effect on reporter induction in dKO cells ([2]; 10 ng/mL TNFα 3 h): no effect; IC50 ([2]; HEK293, 3 h): > 1000 nM
CNC(=O)c1ccc(N2CCCN(c3ccnc4sc(C(N)=O)c(N)c34)CC2)cc1 [15v] | 23.1 nM | – | – | – | 54.2 nM | –
CCc1cnn2c(NCc3ccc[n+]([O-])c3)cc(N3CCCC[C@H]3CCO)nc12 [Dinaciclib] | – | completely inhibited | – | completely inhibited | – | –
CC(C)C[C@H](NC(=O)[C@H](Cc1ccccc1)NC(=O)c1cnccn1)B(O)O [Bortezomib, bortezomib] | 311 nM | – | 173 nM | – | – | –
CN(C)C(=O)Cc1ccc(N2CCCN(c3ccnc4sc(C(N)=O)c(N)c34)CC2)cc1 [15w] | 4.1 nM | – | > 1000 nM | – | 6.6 nM | IC50 [1, 6]: 4 nM; effect on reporter induction in dKO cells ([2]; 10 ng/mL TNFα 3 h): none of them showed any activity
CC(=O)c1c(C)c2cnc(Nc3ccc(N4CCNCC4)cn3)nc2n(C2CCCC2)c1=O [Palbociclib, palbociclib] | > 2000 nM | only weak inhibitory effects at high concentrations | > 2000 nM | only weak inhibitory effects at high concentrations | – | –
